Columns and labels:
[1] = lyophilized ffN cakes with 30 mM cationic additive staged at 60° C. for 3 days, diphosphate by HPLC; format: physicochemical; conditions: 30 mM additive, 60° C. 3 days
Method: FIG. 12 provides data showing the percent diphosphate ffC detected via HLPC after staging for 60° C. for 3 days (3D) in the presence of 30 mM imidazolium additive (lyophilized cakes; n=2; CTRL=control sample with no additive).
FIG. 13 provides data showing the percent diphosphate ffC detected via HLPC after staging for 60° C. for 3 days (3D) in the presence of 30 mM pyridinium additives (lyophilized cakes; n=2; CTRL=control with no additive).
FIG. 14 provides data showing the percent diphosphate ffC detected via HLPC after staging for 60° C. for 3 days (3D) in the presence of 30 mM quaternary additives (lyophilized cakes; n=2; CTRL=control with no additive).
The efficacies of the other cationic substrates were also tested. This was performed using lyophilized ffN cake samples that were formulated with and without said additives, and by staging at an arbitrarily selected stress condition of 60° C. for a period of 3 days.

[2] = ffN stability staged with surfactants in solution, 45° C. 7 days; format: physicochemical; conditions: 45° C. for 7 days, solution format
Method: Each of the surfactants was tested at two different concentrations, 0.5% and 2%.

[3] = ffNs stored with CHAPS at 45° C. for 7 or 21 days, percent peak area retention; format: physicochemical
Method: CHAPS was tested to determine if it prevented degradation of ffNs as the level of heat stress increased. In one of the reaction conditions ffNs were stored with CHAPS for 7 days at 45° C., and the other reaction condition ffNs were stored with CHAPs for 21 days at 45° C.

[4] = stability of ffNs in dry state (TBMACL) or liquid state (CHAPS); format: physicochemical
Text: FIG. 24 provides data showing that addition of the cationic compound Tributylmethylammonium chloride (TBMACL) to ffNs in a dry state increases stability of triphosphate on the ffNs.
FIG. 25 provides data showing that the addition of CHAPS as well as CHAPS and TBMACL to ffNs in a liquid state increases the stability of intact ffNs.

[5] = ffN stress test with or without 10 mM DADMAC, purity by HPLC peak area percent; format: physicochemical
Method: DADMAC (diallyldimethylammonium chloride): 100 μM ffNs were stressed in the presence of 10 mM DADMAC (FIG. 19) in 15 mM 3-(N-morpholino)propanesulfonic acid (MOPS) buffer and 5× glycine buffer (250 mM glycine pH 9.9, 250 mM NaCl, 5 mM ethylediaminetetraacetic acid (EDTA)). Each type of ffNs were tested: ffA, ffC, ffT, and ffG.
The samples were staged for 2 days at 40° C. in the glycine buffer, 2 days at 65° C. and 7 days at 4° C. in the MOPS buffer. DADMAC was tested to see if it could be added to the incorporation mix or ffN mixtures without causing any negative interactions with ffNs.

[6] = 1 to 40 mM TBACL; 45° C. 7 days; solution format
Text: As such, even higher concentrations of cations were not pursued.

[7] = ffNs stored with TBMACL for 35 days at 35° C. or 45° C., diphosphate production; format: physicochemical
Method: TBMACL was tested to determine if it provided protection to the triphosphate of ffNs as heat stress increased. ffNs were stored with TBMACL for 35 days. In one of the storage conditions, the temperature was 35° C. and in the other storage condition, the temperature was 45° C. […] At 35° C. for 35 days TBMACL caused a 10% reduction in diphosphate production. This can be compared to 45° C. for 35 days where TBMACL caused a 17% reduction in diphosphate production.

Arthrobacter russicus = test: bacterial growth in incorporation mix with TBMACL titration, plating for CFU/ml; format: cell-based
Method: To confirm the biocidal effect of TBMACl within liquid sequencing reagents, a titration of TBMACL from 9 mM to 90 mM in incorporation mix was prepared. These experiments were carried out with the omission of polymerase and ffNs in the formulation, as they were not required for the further analysis. On day 0, samples were inoculated with 3×10^6 CFU/ml of the bacteria Arthrobacter russicus. The samples were staged at 12° C. for 0, 14 and 30 days, followed by plating to determine CFU/ml. FIGS. 26-27 provide data showing use of a bulky cationic compound to inhibit bacterial growth. More specifically, FIG. 26 illustrates A. russicus growth in a titration of TBMACL over 30 days at 12° C.; the data shown is on a linear Y axis. FIG. 27 illustrates the same data, with a logarithmic scale Y axis. It may be understood from FIGS. 26-27 that the greater the concentration of TBMACL, the greater the inhibition of bacterial growth. […] In the absence of TBMACL, the CFU/ml increase by about 1.8-fold over 30 days. […] The sample with 90 mM TBMACL appeared to kill essentially all bacteria by day 14, and all bacteria appeared to remain dead at day 30.

Cl.N [ACL, ammonium chloride]
effect on triphosphate stability / diphosphate formation [1]: higher level of diphosphate formation

CCCC[n+]1ccccc1.[Br-] [BPB, 1-butylpyridinium bromide]
reduction in diphosphate ffN formed vs control without additive [1]: approximately 17%

C[C@H](CCC(=O)NCCC[N+](C)(C)CCCS(=O)(=O)[O-])[C@H]1CC[C@H]2[C@@H]3[C@H](O)C[C@@H]4C[C@H](O)CC[C@]4(C)[C@H]3C[C@H](O)[C@]12C [CHAPS, 3-[(3-cholamidopropyl)dimethylammonio]-1-propanesulfonate]
increase in ffN retention against the control sample [2]: ~40%
improvement in percent peak area retention ([3]; 7 days at 45° C.): 27%
improvement in percent PA retention ([3]; 21 days at 45° C.): 113%
stability of triphosphate species of ffNs ([4]; ffNs in a liquid state): increased the stability of trisphosphate species

C=CC[N+](C)(C)CC=C.[Cl-] [DADMAC, diallyldimethylammonium chloride]
effect of DADMAC on ffN purity and diphosphate ([5]; high temperatures, all 4 ffNs): higher % ffN purity as compared to control and lower levels of diphosphate
effect of DADMAC on ffNs ([5]; milder stress conditions): no negative effect

CC[n+]1ccc(C(=O)OC)cc1.[I-] [EMPI, 1-ethyl-4-(methoxycarbonyl)pyridinium iodide]
effect on triphosphate stability / diphosphate formation [1]: negatively impacted triphosphate stability

CCCC[N+](CCCC)(CCCC)CCCC.[Cl-] [TBACL, tetrabutylammonium chloride]
dephosphorylation (percent diphosphate ffC) [6]: reduced dephosphorylation

CCCC[N+](C)(CCCC)CCCC.[Cl-] [TBMACL, tributylmethylammonium chloride]
reduction in diphosphate ffN formed vs control without additive [1]: ≤ 23%
reduction in diphosphate production ([7]; 35° C. for 35 days): 10%
reduction in diphosphate production ([7]; 45° C. for 35 days): 17%
stability of triphosphate species of ffNs ([4]; ffNs in a dry state): increased stability of the trisphosphate species
effect on bioburden load (CFU/ml) (Arthrobacter russicus; 9 mM TBMACL, 30 days at 12° C.): approximately static effect
reduction of CFU/ml (Arthrobacter russicus; 22.5 mM TBMACL, 30 days at 12° C.): 6 fold
reduction of CFU/ml (Arthrobacter russicus; 45 mM TBMACL, 30 days at 12° C.): 8.6 fold
reduction of CFU/ml (Arthrobacter russicus; 90 mM TBMACL, 30 days at 12° C.): about 78,000 fold
biocidal effect on bacterial growth (Arthrobacter russicus; titration 9 mM to 90 mM in incorporation mix): dose-dependent biocidal effect
